According to the OligoGym collection:
These antisense oligonucleotides have a phosphorothioate backbone; sugars and methylation of C are not fully specified.

These sequences were tested against TNFRSF1A. Settings: ASO.
Note: test concentration or dose not given here.

Compared with TTCTCTGGACTGAGGCTC, TTGGGCTCAGGGCAGTGT is higher in remaining target (mRNA or protein) (fraction of control): 0.81 for the first, at least 1 for the second.

For GACCCATTTCCTTTCGGC, the remaining target (mRNA or protein) (fraction of control) was 0.74.

The sequences below were run against TFRC. Settings: ASO.

Compared with CTCCGACAACTTTCTCTT, CTGGCTCCTCCCTCACTG is lower in remaining target (mRNA or protein) (fraction of control): at least 1 for the first, 0.75 for the second.

CACCCGAACCAGGAATCT and CGGATGCTTCACATTTTG cannot be ordered by remaining target (mRNA or protein) (fraction of control): at least 1 for the first, at least 1 for the second.

First: GGAAAGGGAAAGCAGCAT
Second: CACTTTGTTCAACTCAGG
The remaining target (mRNA or protein) (fraction of control) of the first is lower: 0.95 for the first, at least 1 for the second.

AATTATGGGAAACACTGT and AGGAAACCTGCTACATTC cannot be ordered by remaining target (mRNA or protein) (fraction of control): at least 1 for the first, at least 1 for the second.

Compared with CTGAAGAGACCCTATGAA, CTACCCCTTTACAATAGC is lower in remaining target (mRNA or protein) (fraction of control): 0.97 for the first, 0.96 for the second.

Compared with GTCTCCAGCACTCCAACT, TCAACCTGGTATCTCCTA is lower in remaining target (mRNA or protein) (fraction of control): at least 1 for the first, 0.65 for the second.

AGTCCAAGATAAAAGAGG and TAGAGTCTGTTTTCCAGT cannot be ordered by remaining target (mRNA or protein) (fraction of control): at least 1 for the first, at least 1 for the second.

AGATCCCTCACAAATGAA and CGCTTTCCCGCTCCCCGT cannot be ordered by remaining target (mRNA or protein) (fraction of control): at least 1 for the first, at least 1 for the second.

Going from ATTCTTATCTGGTCAGTG to ACGCCAGACTTTGCTGAG, the remaining target (mRNA or protein) (fraction of control) falls from at least 1 to 0.38.

First: TACACCTTGGATAAACTG
Second: GGTTTCTGAACAGCGTTT
The remaining target (mRNA or protein) (fraction of control) of the first is lower: 0.93 for the first, at least 1 for the second.

CCGAGATGGTGGAAACTG and TATCTGAGAACATCTGGG cannot be ordered by remaining target (mRNA or protein) (fraction of control): at least 1 for the first, at least 1 for the second.

Going from CGGTTCCTGCCAGTCTCT to CTCTGGAGATTGTCTGGA, the remaining target (mRNA or protein) (fraction of control) rises from 0.54 to 0.76.

Compared with TTAACAACAACAGGAAAG, TTCTTTCAGGAATGAGGA is lower in remaining target (mRNA or protein) (fraction of control): at least 1 for the first, 0.96 for the second.

AAGCTGCTGCCTAAAGAC and TCCAGGTGTGTAAGGGTC cannot be ordered by remaining target (mRNA or protein) (fraction of control): at least 1 for the first, at least 1 for the second.

Going from TTTAAGTCAAAAGGTCAA to ATATTGAGCCTGTTAGCA, the remaining target (mRNA or protein) (fraction of control) falls from at least 1 to 0.95.

Going from GGGTTTTATTAGCAGATG to CCCTGCTCTGACAATCAC, the remaining target (mRNA or protein) (fraction of control) falls from at least 1 to 0.9.

First: TTTGGCTGACGGCTGTTT
Second: ATCTCAGTGCCAAAAGGA
The remaining target (mRNA or protein) (fraction of control) of the first is lower: 0.39 for the first, at least 1 for the second.

First: CACGAGGGTCGGTGTAGT
Second: CAGCAAGTTTCATCTCCA
The remaining target (mRNA or protein) (fraction of control) of the first is higher: at least 1 for the first, 0.83 for the second.

GTTATCGCCATCTACTTG and CCAATCATAAATCCAATC cannot be ordered by remaining target (mRNA or protein) (fraction of control): at least 1 for the first, at least 1 for the second.

Going from CCTCCGTCCCGAGCCGCC to TATTGTCAGCATTTTCTT, the remaining target (mRNA or protein) (fraction of control) rises from 0.43 to at least 1.

First: CAAAGTAAGCGAACCACT
Second: TTGGCTTCTGGTCCCCTC
The remaining target (mRNA or protein) (fraction of control) of the first is higher: at least 1 for the first, 0.38 for the second.

Compared with GAAGCCCGCACTCACACT, TCAACATACAACGCAAGA is lower in remaining target (mRNA or protein) (fraction of control): 0.8 for the first, 0.65 for the second.

AAACAAGTCTACCGTTCT and GCGGCTCCCTATGGCTGC cannot be ordered by remaining target (mRNA or protein) (fraction of control): at least 1 for the first, at least 1 for the second.

First: TTCTCCACCAAACAAGTT
Second: GTTGTTAGTCTGGAAGTA
The remaining target (mRNA or protein) (fraction of control) of the first is higher: at least 1 for the first, 0.9 for the second.

First: CCACGAGCAGAATACAGC
Second: CTCATTGGCAAGAAAACA
The remaining target (mRNA or protein) (fraction of control) of the first is higher: at least 1 for the first, 0.94 for the second.

First: TTAATAACTCCAAAGATG
Second: CATTCTGAACTGCCACAC
The remaining target (mRNA or protein) (fraction of control) of the first is higher: at least 1 for the first, 0.62 for the second.

CAACCCTAACTGTAGAAA and GTCTGTTTTCTCAGCATT cannot be ordered by remaining target (mRNA or protein) (fraction of control): at least 1 for the first, at least 1 for the second.

Going from ATAGCAGATACTTCCACT to TATGATGGTTCACTCACG, the remaining target (mRNA or protein) (fraction of control) rises from 0.96 to at least 1.

Going from TTACCCACCCAATGCTTA to TGGGCAAGTTTCAATAGG, the remaining target (mRNA or protein) (fraction of control) rises from 0.89 to at least 1.

Compared with CCGCCACAGCCCCTTCCC, CACAGCAATAGTCCCATA is lower in remaining target (mRNA or protein) (fraction of control): 0.95 for the first, 0.67 for the second.

GAACTAAATGGAGGCTTA and ACACTGCTCCCGATAATG cannot be ordered by remaining target (mRNA or protein) (fraction of control): at least 1 for the first, at least 1 for the second.

GGAAACTGAGTGTGATTG and AGCTATGGGTATCACATT cannot be ordered by remaining target (mRNA or protein) (fraction of control): at least 1 for the first, at least 1 for the second.

First: ATTCTTGCTTTCTGAGGT
Second: AGAGGCAGTTCCCATTAC
The remaining target (mRNA or protein) (fraction of control) of the first is higher: at least 1 for the first, 0.46 for the second.

Going from CATGTCCAAAGAATGAAA to TTTAACATCAGGTTTTGT, the remaining target (mRNA or protein) (fraction of control) rises from 0.95 to at least 1.
